Data from PMC5602355, “Endogenous Isoquinoline Alkaloids Agonists of Acid-Sensing Ion Channel Type 3” (Frontiers in Molecular Neuroscience, 2017).

Columns and labels:
[1] = target: T1, human ASIC3 (hASIC3) (Homo sapiens, UniProt Q9UHC3); experiment: Activation of hASIC3 channels expressed in Xenopus laevis oocytes, whole-cell two electrode voltage clamp; assay type: cell-based; conditions: for Maximal activating effect reached, % of Imax: Imax predicted by logistic fit
T1 construct: expressed in transfected cells; host or cells: Xenopus laevis oocytes (injected)
T1 sequence (Q9UHC3 1-531): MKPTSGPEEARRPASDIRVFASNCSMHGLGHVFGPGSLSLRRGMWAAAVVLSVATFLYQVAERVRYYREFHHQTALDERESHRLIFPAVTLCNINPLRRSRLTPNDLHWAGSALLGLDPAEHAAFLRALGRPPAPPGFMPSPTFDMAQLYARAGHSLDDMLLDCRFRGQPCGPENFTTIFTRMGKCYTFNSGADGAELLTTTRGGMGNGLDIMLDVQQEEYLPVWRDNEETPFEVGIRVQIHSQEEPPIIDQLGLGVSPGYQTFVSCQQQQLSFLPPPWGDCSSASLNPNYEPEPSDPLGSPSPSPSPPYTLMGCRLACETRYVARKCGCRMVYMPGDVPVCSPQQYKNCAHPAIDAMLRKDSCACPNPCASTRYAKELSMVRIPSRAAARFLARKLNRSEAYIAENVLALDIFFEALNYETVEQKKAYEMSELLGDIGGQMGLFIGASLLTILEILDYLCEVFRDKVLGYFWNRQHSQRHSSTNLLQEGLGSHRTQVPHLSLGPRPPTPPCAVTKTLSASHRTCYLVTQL
Source text: (§1) The ability of EIAs to activate ASIC3 channels was studied in whole-cell configuration on oocytes of Xenopus laevis. THP and reticuline caused slowly activated sustained inward currents both in human (Figures 1A,B) and rat (Figures 1C,D) homomeric ASIC3 channels at resting pH 7.4 and above.
(§2) In the case of human ASIC3 channels (hASIC3), the activating effect was greater and even exceeded the response of the cell to pH drop of 7.8–5.5 in control experiments (Figure 1A). The maximal effect reached about 30% of Imax (a maximal amplitude predicted by the logistic equation fitting of dose-dependence of EIA-induced current). […] THP shown the same potency on the rASIC3 channel (rASIC3; Figure 1C). The activating effect under the same conditions reached about 30% of Imax.
(§3) Consequently, a maximal concentration of 1 mM was used in experimentations. The maximal effect on hASIC3 reached about 60% of Imax.
(§4) Oocytes expressed hASIC3 and rASIC3 homomeric channels were prepared as described (Dubinnyi et al., [2012]). After injection, the oocytes were kept for 2–3 days at 19°C and then up to 7 days at 15°C in an ND-96 medium containing (in mM): 96 NaCl, 2 KCl, 1.8 CaCl2, 1 MgCl2 and 10 HEPES titrated to pH 7.4 with NaOH supplemented with gentamycin (50 μg/ml). Two electrode voltage clamp recordings were made using a GeneClamp500 amplifier (Axon Instruments), and data were filtered at 20 Hz and digitized at 100 Hz by an AD converter L780 (L-Card, Moscow, Russia) using homemade software. A computer-controlled valve system for a fast solution switch was used. Microelectrodes were filled with 3 M KCl solutions. All solutions of the testing compounds were supplemented with 0.1% BSA. To induce currents, we employed ND-96-modified solutions in which 10 mM of HEPES was substituted for 5 mM MES pH 5.5. A set of external ND-96 solutions with pH 6.8–7.0 (buffered with 10 mM of MOPS), pH 7.1–8.0 (buffered with 10 mM of HEPES) was prepared.
The analysis of electrophysiological data was performed using the program OriginPro 8.6. The curve-fitting analysis was carried out with the following four-parameter logistic equation: F(x) = A/(1 + (x/x0)n), where x is the concentration of the ligand, F(x) is the response value at a given ligand concentration, A is the response value at maximal activation (% of control), x0 is the EC50 value and n is the Hill coefficient (slope factor). All data are presented as the mean ± SE.

[2] = Solubility in physiological solutions for electrophysiology; assay type: physicochemical; conditions: in words; maximal concentration used 1 mM
Protocol: as §3

[3] = target: T2, rat ASIC3 (rASIC3) (Rattus norvegicus, UniProt O35240); experiment: Activation of rASIC3 channels expressed in Xenopus laevis oocytes, whole-cell two electrode voltage clamp; assay type: cell-based
T2 construct: expressed in transfected cells; host or cells: Xenopus laevis oocytes (injected)
T2 sequence (O35240 1-533): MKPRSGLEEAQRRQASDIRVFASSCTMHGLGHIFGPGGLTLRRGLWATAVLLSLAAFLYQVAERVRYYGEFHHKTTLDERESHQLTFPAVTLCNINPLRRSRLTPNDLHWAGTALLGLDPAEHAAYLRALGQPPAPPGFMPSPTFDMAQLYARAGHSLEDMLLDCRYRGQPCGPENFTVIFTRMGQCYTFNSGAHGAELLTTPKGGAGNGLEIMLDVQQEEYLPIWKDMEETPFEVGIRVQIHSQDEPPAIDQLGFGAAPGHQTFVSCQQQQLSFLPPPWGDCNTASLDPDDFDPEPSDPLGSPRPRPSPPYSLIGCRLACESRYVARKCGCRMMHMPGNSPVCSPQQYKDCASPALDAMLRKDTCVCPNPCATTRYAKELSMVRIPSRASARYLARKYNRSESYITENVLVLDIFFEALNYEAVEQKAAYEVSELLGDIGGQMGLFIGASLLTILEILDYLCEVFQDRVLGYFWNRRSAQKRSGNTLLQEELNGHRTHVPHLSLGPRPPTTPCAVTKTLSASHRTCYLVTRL
Source text: as §1, §2, §4
(§5) The analysis of electrophysiological data was performed using the program OriginPro 8.6. […]

[4] = target: T1, human ASIC3 (hASIC3); experiment: Recovery of the transient current of hASIC3 from steady-state desensitization, oocytes; assay type: cell-based; conditions: hASIC3, conditioning pH 7.3, pH 5.5 stimulus, n = 4-5
Protocol: EIAs cause both the channel activation and transient component of hASIC3 current restoration from a desensitization at pH 7.3 (Figures 2A,D). For THP, the restoration effect was more pronounced. This effect was dose-dependent and reached a maximal possible value at the highest applied concentration of THP (10 mM). […] For this reason, the maximal amplitude of the transient current recovered by THP from desensitization (Imax) was predicted by the fitting of the dose dependence by a logistic equation for each experimental cell.
as §4, with “To induce currents, we employed ND-96-modified solutions in which 10 mM of HEPES was substituted for 5 mM MES pH 5.5. A set of external ND-96 solutions with pH 6.8–7.0 (buffered with 10 mM of MOPS), pH 7.1–8.0 (buffered with 10 mM of HEPES) was prepared.” left out

[5] = target: T2, rat ASIC3 (rASIC3); experiment: Recovery of the transient current of rASIC3 from steady-state desensitization, oocytes; assay type: cell-based; conditions: rASIC3, conditioning pH 6.8, pH 5.5 stimulus, n = 4-5
Protocol: as §4, §5

[6] = hASIC3, holding pH 7.8, logistic fit, n = 5

Row | SMILES | Hill coefficient (nH) of channel activation [1, 6] | EC50 ([1]; hASIC3, holding pH 7.8, logistic fit, n = 5, read-out: EC50 of channel activation (EIA-induced sustained current)) [mM] | Maximal activating effect reached, % of Imax ([1]; hASIC3, maximal concentration 1 mM) | Solubility in physiological solutions for electrophysiology [2] | EC50 [1] [mM] | Maximal activating effect reached, % of Imax ([1]; hASIC3, pH 7.8, highest accessible concentration 10 mM) | Hill coefficient (nH) of channel activation ([3]; rASIC3, holding pH 7.8, logistic fit, n = 5) | EC50 ([3]; rASIC3, holding pH 7.8, logistic fit, n = 5, read-out: EC50 of channel activation (EIA-induced sustained current)) [mM] | Maximal activating effect reached, % of Imax ([3]; rASIC3, pH 7.8, up to 10 mM, Imax predicted by logistic fit) | EC50 [4] [mM] | EC50 [5] [mM]
1 | COc1ccc(CC2c3cc(O)c(OC)cc3CCN2C)cc1O (stereo not drawn) [Reticuline, reticuline] | 0.85 ± 0.05 | 0.56 ± 0.04 | about 60 % of Imax | does not have a high solubility |  |  |  |  |  |  | 
2 | Oc1ccc(CC2NCCc3cc(O)c(O)cc32)cc1O (stereo not drawn) [THP, tetrahydropapaveroline] | 0.99 ± 0.05 |  |  |  | > 10 | about 30 % of Imax | 0.95 ± 0.04 | > 10 | about 30 % of Imax | 2.3 ± 0.04 | 4.6 ± 0.1
